Counter-ions that a name gives are not always drawn.
Legend:
Format in all cases: in vivo, C57B1/6J mice
NASH mice [1] = test: Serum transaminases AST and ALT in HFD-induced NASH mice (clinical chemistry panel)
From the text: (§1) Early Steatosis Model: C57B1/6J mice (22-39 days old) mice were used for the study. Mice were fed normal chow food (Lab Diet, 5P14Prolab Animal Diet, PMI Nutritional International, Brentwood, Mo., Cat# RMH 2500) or 58% high fat diet (HFD, 58 kcal % fat and corn starch with purple dye, Research Diets, New Brunswick, N.J., Cat# D12330 equivalent to Western diet) for 120-150 days. […] This group is referred to as the HFD-low body group in FIG. 1A (insulin & liver fat accumulation˜normal). On the other hand, one fifth of the mice gained 60-70% higher body weight (compared to normal chow fed mice) while on the same HFD diet (NASH group, very high insulin and liver fat) further shown in FIG. 1A. The majority of the mice (three fifths) gained body weight as expected on the HFD (30-40% higher than the normal chow fed mice) and is referred to as the DIO group (normal to moderately high insulin and liver fat accumulation) as shown in FIG. 1A. Control animals (n=5) representative of the HFD-low body weight and the NASH groups were sacrificed prior to starting the rest of the animals on treatment with the Compound 2 (5 or 10 mg/Kg/day). Liver, white adipose and muscle from the sacrificed mice were collected for histology performed on the liver tissue.
Following 120-150 days on the HFD, mice in the NASH group were treated with Compound 2 (5 or 10 mg/Kg/day) or vehicle (10% Encapsin) for 42 days. Fasting and post prandial (PP) blood draws were taken at the beginning of the study (compound treatment) to identify and confirm the NASH group and during the study to evaluate various pharmacological responses. Since the NASH mice are severely hyperinsulinemic compared to NC mice, glucose tolerance testing (GTT, measures peripheral insulin resistance) was performed to evaluate the effect of Compound 2 on improvement of peripheral insulin sensitivity. Treatment was administered for 42 days (separate experiments). Body weight and food intake was measured throughout the study.
Tail blood was collected into EDTA capillary tubes (Becton, Dickinson and Company, Franklin Lakes, N.J., Cat #365973). Upon sacrifice, blood was collected by cardiac puncture using a 1 mL Syringe Tuberculin Slip Tip (Becton, Dickinson & Company, Cat #309602) and B-D25G 5/8 needle (Becton Dickinson, Franklin Lakes, N.J., Cat #305122) and saved into Microtainer brand tube with EDTA (Becton, Dickinson and Company, Cat #365973). The blood was spun for 8 minutes at 8500 rpm at 4° C. (Eppendorf, Centrifuge 5415R, New York, N.Y.). Plasma was collected and stored at −20° C. for further analyses
80 μL EDTA plasma was diluted with 80 μL Dulbecco's phosphate buffered saline (Gibco, Grand Island, N.Y., Cat #14040-133) and analyzed in Olympus AU600 (Olympus, London, UK) for the following endpoints. The lower and upper limit ranges were according to the assay values provided by the JAS Diagnostics, INC (Miami, Fla.). • Glucose (LL 94-116, UL 297-353 mg/dL, Cat # JAS GLU2-125) • Triglycerides (LL 46-102, UL 128-168 mg/dL, Cat # TRI2-125) • ALT/GPT (LL 10-34, UL 64-114 U/L, Cat # JAS ALT2-125) • AST/GOT (LL 18-46, UL 121-187 U/L, Cat # JAS AST2-125) • Multi-Chemistry calibrator (Albumin: 3.9 g/dL, Cholesterol: 212 mg/dL, • Creatinine: 4.4 mg/dL, Glucose: 220 mg/dL, Triglycerides: 116 mg/dL, Cat # JAS CAL1-5) • Multi-Chemistry control level 1 (Range: See above for each constituent, Cat # JAS CON1-5) • Multi-Chemistry control level 2 (Range: See above for each constituent, Cat # JAS CON2-5)

NASH mice [2] = test: Hepatic fibrosis, Trichrome staining of liver sections
From the text: Early Steatosis Model: C57B1/6J mice (22-39 days old) mice were used for the study. Mice were fed normal chow food (Lab Diet, 5P14Prolab Animal Diet, PMI Nutritional International, Brentwood, Mo., Cat# RMH 2500) or 58% high fat diet (HFD, 58 kcal % fat and corn starch with purple dye, Research Diets, New Brunswick, N.J., Cat# D12330 equivalent to Western diet) for 120-150 days. […] This group is referred to as the HFD-low body group in FIG. 1A (insulin & liver fat accumulation˜normal). On the other hand, one fifth of the mice gained 60-70% higher body weight (compared to normal chow fed mice) while on the same HFD diet (NASH group, very high insulin and liver fat) further shown in FIG. 1A. […]
The development of NASH was further confirmed using histological analyses of liver. The sections were analyzed for 1) hepatic steatosis 2) necroinflammation, and 3) fibrosis. Histological analyses of hepatic steatosis was assessed by quantitative image analysis of Oil Red O stain in liver sections and defined as the percentage of Oil Red ‘O’ positive area relative to the total image area.
Following 120-150 days on the HFD, mice in the NASH group were treated with Compound 2 (5 or 10 mg/Kg/day) or vehicle (10% Encapsin) for 42 days. […] Body weight and food intake was measured throughout the study. […]

TGFβ-1 = TGFβ-1 levels in liver lysates of NASH mice
From the text: as §1, with “Liver, white adipose and muscle from the sacrificed mice were collected for histology performed on the liver tissue.” left out
Following 120-150 days on the HFD, mice in the NASH group were treated with Compound 2 (5 or 10 mg/Kg/day) or vehicle (10% Encapsin) for 42 days. […] Body weight and food intake was measured throughout the study.

C[C@@H]1CN(Cc2ccc(OC(F)(F)F)cc2)C[C@H](C)N1S(=O)(=O)c1cccc2c1C[C@@H](C(=O)O)C2 [Compound 2, (S)-4-[cis-2,6-Dimethyl-4-(4-trifluoromethoxy-benzyl)-piperazine-1-sulfonyl]-indan-2-carboxylic acid tosylate]
reduction in AST compared to the vehicle group (NASH mice [1]; 42 days of 5 mg/kg/day, p<0.02): 43% | reduction in ALT compared to the vehicle group (NASH mice [1]; 42 days of 5 mg/kg/day, p<0.05): 43% | ALT serum level, treated group (NASH mice [1]; 42 days of 5 mg/kg/day, vehicle 108±15, in U/L): 62±13 | AST serum level, treated group (NASH mice [1]; 42 days of 5 mg/kg/day, vehicle 201±23, in U/L): 115±19 | levels of serum transaminases AST and ALT (NASH mice [1]; oral administration, summary): reduced levels | attenuation of progression of fibrosis, Trichrome staining of liver sections (NASH mice [2]; 10 mg/Kg/day, p<0.03, FIG. 3B): 41% | progression to fibrosis measured by histological presence of collagen deposits in the liver (NASH mice [2]; oral administration, NASH mice, summary): attenuated progression to fibrosis | decrement of TGFβ levels in the liver lysates (TGFβ-1; 10 mg/Kg/day, p<0.01, FIG. 3A): 49% | levels of inflammatory marker TGFβ-1 (TGFβ-1; oral administration, NASH mice, p<0.05 vs. vehicle): normalized levels
